The target in one test is T1, EP4 receptor (Homo sapiens, UniProt P35408).
T1 construct: endogenous in cells; host or cells: Jurkat cells (human leukemia T lymphoma), no transfection described
Nature of the test: EP4 receptor antagonistic activity by measurement of cAMP amount in human Jurkat cells (HTRF). Type of test: cell-based. Conditions: inhibition of cAMP, PGE2 100 nM. Here is the method: Evaluation Test of EP4 Receptor Antagonistic Activity by Measurement of cAMP Amount in Human Jurkat Cells
Jurkat cells (derived from human leukemia T lymphoma) were cultured with RPMI1640 (added with 10% fetal bovine serum) using a F75 flask. After proliferation to semiconfluency, indomethacin having a final concentration of 5 μM was added thereto, and the cells were further cultured for 18 hours. The cells were collected in a 15-mL Spitz tube, prepared to be 1×10^6 cells/mL using a Cell Banker (Mitsubishi Kagaku Iatron), and stored at −80° C. until used for assay. The cells were cultured in a CO2 incubator (37° C., 5% CO2).
A cAMP HiRange kit (Cisbio international) was used for cAMP measurement. A test compound, PGE2, and the cells were diluted and prepared with an assay buffer. The test compound was prepared to have a 3-fold concentration relative to the final concentration, PGE2 was prepared to be 300 nM, and the Jurkat cells frozen stored were prepared to be 1×10^6 cells/mL by thawing them at 37° C. To a 384-well U-bottom black microplate (Corning) were added the test compound, the cells, and PGE2 in this order in each in an amount of 5 μL, followed by shaking with a plate shaker and incubating at room temperature for 30 minutes. After incubation, 5 μL of a d2 reagent which had been diluted 0.6-fold with a lysis buffer was added to each well, followed by shaking with a plate shaker. Subsequently, 5 μL of an europium cryptate reagent which had been diluted 0.6-fold with a lysis buffer was added to each well, followed by shaking with a plate shaker and incubating at room temperature for 60 minutes under light shielding. After incubation, the fluorescence of the cryptate at 620 nm and the fluorescence of the d2 at 655 nm were measured using ARVO1420 (PerkinElmer). The cAMPs of 280, 70, 17.5, 4.38, 1.09, 0.27, and 0.068 nM were measured simultaneously for creating a standard curve. All measurements were performed in quadruplicate, and inhibitory rates were calculated by determining the cAMP amount of each test sample to the value obtained by subtracting the cAMP amount of the group without addition of PGE2 from the cAMP amount of the group with addition of PGE2 of 100 nM. IC50 values were calculated by a Logistic regression method.
In this connection, as the “assay buffer” and “lysis buffer” above, those as shown below were used:
Assay buffer; 1×HBSS (Hanks buffered salt solution, Nissui Pharmaceutical Co., Ltd.), 20 mM HEPES (pH 7.4, Nakarai Tesque), 0.5 mM IBMX (3-isobutyl-1-methylxanthine, WAKO), 0.02% CHAPS (Sigma), 0.1% Bovine serum albumin (Sigma), 2 μM Indomethacin (Sigma)
Lysis buffer; 50 mM NaPO4, 0.8 M KF, 1% Triton X-100, 0.2% Bovine serum albumin
Background: In TR-FRET formats the signal depends on donor and acceptor labels being close together.

For another test, the target named is rat EP4 receptor (Rattus norvegicus, UniProt P43114). The test is described as follows: Rat EP4 receptor antagonistic activity by measurement of cAMP amount (rEP4 cAMP HTRF assay, CHO cells). Type of test: cell-based. Conditions: inhibition of cAMP, PGE2 100 nM, CHO cells expressing rat EP4. Also on record: expressed in transfected cells. The method, then:
Evaluation Test of Rat EP4 Receptor Antagonistic Activity by Measurement of cAMP Amount
CHO cells in which rat EP4 had been forced to be expressed were seeded in 96-well plates at 2×10^4 cells/100 μL and cultured overnight. The culture medium was replaced with 2 μM Indomethacin/0.1% BSA/alpha-MEM, and further, after 60 minutes, replaced with 1 mM IBMX/2 μM Indomethacin/0.1% BSA/alpha-MEM. After 10 minutes, the test compound was added, and further, after 10 minutes, PGE2 was added at a final concentration of 100 nM. The cells were cultured and reacted in a CO2 incubator (37° C., 5% CO2). After 30 minutes, the culture medium was removed and 100 μL/well of 0.2% Triton X-PBS was added for lysis of the cells. The cAMP contained in this cell lysis solution was measured with a cAMP HiRange kit (Cisbio international). The cell lysis solution was disperesed at 10 μL each into a 384-well U-bottom black microplate (Corning), and a d2 reagent and an europium cryptate reagent were added in this order to each well, each in an amount of 5 μL. It was incubated at room temperature for 60 minutes under light shielding. After incubation, the fluorescence of the cryptate at 620 nm and the fluorescence of the d2 at 655 nm were measured using ARVO1420 (PerkinElmer). The cAMPs of 280, 70, 17.5, 4.38, 1.09, 0.27, and 0.068 nM were measured simultaneously for creating a standard curve. The inhibitory rates were calculated by determining the cAMP amount of each test sample to the value obtained by subtracting the cAMP amount of the group without addition of PGE2 from the cAMP amount of the group with addition of PGE2 of 100 nM. IC50 values are calculated by a Logistic regression method.

T1 sequence (P35408 whole entry): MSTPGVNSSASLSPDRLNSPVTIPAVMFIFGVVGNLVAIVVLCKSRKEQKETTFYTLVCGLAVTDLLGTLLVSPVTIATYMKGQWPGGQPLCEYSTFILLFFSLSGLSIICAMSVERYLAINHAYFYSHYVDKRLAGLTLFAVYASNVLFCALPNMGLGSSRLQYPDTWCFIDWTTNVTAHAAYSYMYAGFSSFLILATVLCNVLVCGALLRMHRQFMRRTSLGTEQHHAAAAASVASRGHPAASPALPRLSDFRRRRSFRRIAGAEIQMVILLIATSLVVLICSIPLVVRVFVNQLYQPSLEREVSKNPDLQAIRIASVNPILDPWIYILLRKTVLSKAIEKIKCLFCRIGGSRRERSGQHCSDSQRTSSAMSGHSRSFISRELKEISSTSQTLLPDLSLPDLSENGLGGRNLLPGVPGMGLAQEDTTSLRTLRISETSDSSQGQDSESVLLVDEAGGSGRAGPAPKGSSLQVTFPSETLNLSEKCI
Chain of rat EP4 receptor (P43114 whole entry): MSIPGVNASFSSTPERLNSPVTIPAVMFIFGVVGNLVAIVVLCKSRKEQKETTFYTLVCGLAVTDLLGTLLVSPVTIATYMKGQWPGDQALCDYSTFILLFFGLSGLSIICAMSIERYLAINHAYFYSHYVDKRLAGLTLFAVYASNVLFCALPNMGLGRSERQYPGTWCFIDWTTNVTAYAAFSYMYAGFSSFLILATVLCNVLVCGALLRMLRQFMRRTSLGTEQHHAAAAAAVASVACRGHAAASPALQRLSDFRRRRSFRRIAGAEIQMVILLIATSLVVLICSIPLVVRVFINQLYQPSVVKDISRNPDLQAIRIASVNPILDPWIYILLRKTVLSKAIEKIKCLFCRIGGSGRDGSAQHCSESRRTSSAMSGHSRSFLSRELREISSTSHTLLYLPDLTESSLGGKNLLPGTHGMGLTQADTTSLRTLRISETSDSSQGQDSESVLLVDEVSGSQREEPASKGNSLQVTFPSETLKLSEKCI

A word on the IC50: it is the concentration at which inhibition is half-maximal. In the case of `O=C(NC[C@H]1CC[C@H](C(=O)O)CC1)c1cc(Cl)cc2ccn(Cc3ccc4ccccc4n3)c12` [Example 53], the results for the concentration for half-maximal inhibition (IC50) on EP4 receptor and against rat EP4 receptor were 0.094 nM and 0.9 nM, respectively.
Turning to `O=C(O)c1ccc(CNC(=O)c2cc(Cl)cc3ccn(Cc4ccc5ccccc5n4)c23)cc1` [Example 57], the half-inhibitory concentration (IC50) at EP4 receptor is 0.037 nM; at rat EP4 receptor it was 0.76 nM.
The corresponding values for `O=C(NC[C@H]1CC[C@H](C(=O)O)CC1)c1cc(C(F)(F)F)cc2ccn(Cc3ccc4ccccc4n3)c12` [Example 124] are 0.15 nM and 1.1 nM.

These data come from patent US8598355B2, “Amide compound” (Astellas Pharma Inc., priority 2008, dated 2013).
